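Cultured in 96-well plates, cells were exposed to test compound for 48 hours across five concentrations. GI50 is the concentration that inhibits growth by half.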 Activity calls are given as the source filed them. No stated cut-off is given here; in the data, active = GI50 up to about 1.1 µM and inactive = higher.
Legend:
Experiment in all cases: NCI tumour cell line growth inhibition, 48 h
786-0 = test system: 786-0
A498 = test system: A498
CAKI-1 = test system: CAKI-1
CCRF-CEM = test system: CCRF-CEM
DU-145 = test system: DU-145
HCC 2998 = test system: HCC 2998
HL-60 = test system: HL-60
HT-29 = test system: HT-29
KM12 = test system: KM12
LOX IMVI = test system: LOX IMVI
MDA-MB-435 = test system: MDA-MB-435
MOLT-4 = test system: MOLT-4
NCI-H23 = test system: NCI-H23
NCI/ADR-RES = test system: NCI/ADR-RES
OVCAR-3 = test system: OVCAR-3
OVCAR-4 = test system: OVCAR-4
OVCAR-8 = test system: OVCAR-8
PC-3 = test system: PC-3
SF-268 = test system: SF-268
SF-295 = test system: SF-295

SMILES | GI50 (786-0) | GI50 (A498) | GI50 (CAKI-1) | GI50 (CCRF-CEM) | GI50 (DU-145) | GI50 (HCC 2998) | GI50 (HL-60) | GI50 (HT-29) | GI50 (KM12) | GI50 (LOX IMVI) | GI50 (MDA-MB-435) | GI50 (MOLT-4) | GI50 (NCI-H23) | GI50 (NCI/ADR-RES) | GI50 (OVCAR-3) | GI50 (OVCAR-4) | GI50 (OVCAR-8) | GI50 (PC-3) | GI50 (SF-268) | GI50 (SF-295)
O=C1c2ccccc2C(=O)c2c(OCC3CO3)ccc(OCC3CO3)c21 (stereo not drawn) | 1.48 µM (inactive) | 17.9 µM (inactive) | 1.91 µM (inactive) | < 0.0167 µM (active) | 3.18 µM (inactive) | 16.1 µM (inactive) | 0.118 µM (active) | 4.84 µM (inactive) | 5.04 µM (inactive) | 0.0386 µM (active) | 2.7 µM (inactive) | 0.0653 µM (active) | 4.12 µM (inactive) | 2.21 µM (inactive) | 3.4 µM (inactive) | 6.52 µM (inactive) | 1.48 µM (inactive) | 4.42 µM (inactive) | 0.346 µM (active) | 2.28 µM (inactive)
Nc1ccccc1C(=O)NNC(=O)c1ccccc1N | > 100 µM (inactive) | > 100 µM (inactive) | > 100 µM (inactive) | > 100 µM (inactive) | > 100 µM (inactive) | > 100 µM (inactive) | > 100 µM (inactive) | > 100 µM (inactive) | > 100 µM (inactive) | > 100 µM (inactive) | > 100 µM (inactive) | > 100 µM (inactive) | > 100 µM (inactive) | > 100 µM (inactive) | > 100 µM (inactive) | > 100 µM (inactive) | > 100 µM (inactive) | > 100 µM (inactive) |  | > 100 µM (inactive)
CC1C(=O)C(C)C(c2ccccc2)N(N=O)C1c1ccccc1 (stereo not drawn) | 126 µM (inactive) | 247 µM (inactive) | 184 µM (inactive) | > 662 µM (inactive) | 173 µM (inactive) | > 100 µM (inactive) | > 724 µM (inactive) | > 570 µM (inactive) | > 439 µM (inactive) | > 533 µM (inactive) | 157 µM (inactive) | > 695 µM (inactive) | > 69 µM (inactive) | 179 µM (inactive) | 197 µM (inactive) | > 65.9 µM (inactive) | > 91.6 µM (inactive) | 152 µM (inactive) | 65.2 µM (inactive) | 48.8 µM (inactive)
O=C1N[C@@H](c2c[nH]c3ccc(Br)cc23)C(=O)N[C@H]1c1c[nH]c2ccc(Br)cc12 | 11.5 µM (inactive) | 5.24 µM (inactive) | 12.8 µM (inactive) | 4.11 µM (inactive) | 13.8 µM (inactive) | 3.61 µM (inactive) | 6.9 µM (inactive) | 7.5 µM (inactive) | 5.06 µM (inactive) | 6.14 µM (inactive) | 4.25 µM (inactive) | 3.53 µM (inactive) | 10.6 µM (inactive) | 31.4 µM (inactive) | 9.23 µM (inactive) | 5.73 µM (inactive) | 11.4 µM (inactive) | 3.6 µM (inactive) | 8.15 µM (inactive) | 11.9 µM (inactive)
CCCCCCCC/C=C\CCCCCCC/C=C1\C[C@](/C=C/C(=O)OC)(CO)OC1=O | 1.33 µM (inactive) | 8.34 µM (inactive) | 1.29 µM (inactive) | 1.32 µM (inactive) | 10.8 µM (inactive) | 5.36 µM (inactive) | 2.15 µM (inactive) | 5.08 µM (inactive) | 3.37 µM (inactive) | 1.38 µM (inactive) | 1.25 µM (inactive) | 0.611 µM (active) | 3.71 µM (inactive) | 3.47 µM (inactive) | 5.32 µM (inactive) | 3.2 µM (inactive) | 2.59 µM (inactive) | 1.79 µM (inactive) | 1.96 µM (inactive) | 2.23 µM (inactive)
NC(=O)c1ccc(NCC2=CC(=O)C=CC2=O)cc1 | 19.6 µM (inactive) | 33.9 µM (inactive) | 19.1 µM (inactive) | 7.01 µM (inactive) | > 100 µM (inactive) | 35.8 µM (inactive) | 11.5 µM (inactive) | 22.1 µM (inactive) | > 100 µM (inactive) | 17.5 µM (inactive) | 17.2 µM (inactive) | 18.8 µM (inactive) | 25.9 µM (inactive) | 25.6 µM (inactive) | 16.3 µM (inactive) | 19.8 µM (inactive) | 20.4 µM (inactive) | 18.6 µM (inactive) | 22.9 µM (inactive) | > 100 µM (inactive)
CO[C@@H]1C[C@H]2[C@@H]3CC[C@H]([C@H](C)COC(C)=O)[C@@]3(C)CC[C@@H]2[C@@]2(C)CC[C@H]3C[C@]312 | > 100 µM (inactive) | > 100 µM (inactive) | > 100 µM (inactive) | > 100 µM (inactive) | > 100 µM (inactive) | > 100 µM (inactive) | > 100 µM (inactive) | > 100 µM (inactive) | > 100 µM (inactive) | > 100 µM (inactive) | > 100 µM (inactive) | > 100 µM (inactive) | > 100 µM (inactive) | > 100 µM (inactive) | > 100 µM (inactive) | > 100 µM (inactive) | > 100 µM (inactive) | > 100 µM (inactive) | > 100 µM (inactive) | > 100 µM (inactive)
CCc1cccc(CC)c1NC(=S)NC(=O)c1ccc(Br)cc1 | 30.1 µM (inactive) | 33.6 µM (inactive) | 29.6 µM (inactive) | 17.7 µM (inactive) | 75.7 µM (inactive) | 33.2 µM (inactive) | 17.5 µM (inactive) | 36.9 µM (inactive) | 33.8 µM (inactive) | > 39.4 µM (inactive) | 23 µM (inactive) | 18.8 µM (inactive) | 29.6 µM (inactive) | 29.7 µM (inactive) | 36.3 µM (inactive) | 7.48 µM (inactive) | 54.5 µM (inactive) | 24.3 µM (inactive) | 45 µM (inactive) | > 53 µM (inactive)
CC(=O)CC(O)(C(F)(F)Cl)C(F)(Cl)Cl (stereo not drawn) | > 10 µM (inactive) | > 10 µM (inactive) | > 10 µM (inactive) | > 10 µM (inactive) | > 10 µM (inactive) | > 10 µM (inactive) | > 10 µM (inactive) | > 10 µM (inactive) | > 10 µM (inactive) | > 10 µM (inactive) | > 10 µM (inactive) |  | > 10 µM (inactive) | > 10 µM (inactive) | > 10 µM (inactive) | > 10 µM (inactive) | > 10 µM (inactive) | > 10 µM (inactive) | > 10 µM (inactive) | > 10 µM (inactive)
CCc1cccc(C(C)C)c1NC1=C([n+]2ccc(C)cc2)C(=O)c2ccccc2C1=O.[O-][Cl+3]([O-])([O-])[O-] | 0.481 µM (active) | 2.75 µM (inactive) | 1.13 µM (inactive) | 0.21 µM (active) | 0.667 µM (active) | 3.21 µM (inactive) | 1.18 µM (inactive) | 1.82 µM (inactive) | 2.77 µM (inactive) | 0.673 µM (active) | 1.7 µM (inactive) | 0.3 µM (active) | 1.93 µM (inactive) | 4.92 µM (inactive) | 0.647 µM (active) | 1.73 µM (inactive) | 0.962 µM (active) | 1.54 µM (inactive) | 0.359 µM (active) | 1.87 µM (inactive)
COC(=O)c1ccc(C)cc1CC1Cc2cc(C)ccc2C1=O (stereo not drawn) | > 100 µM (inactive) | > 100 µM (inactive) | > 100 µM (inactive) | > 100 µM (inactive) | > 10 µM (inactive) | > 100 µM (inactive) | > 100 µM (inactive) | > 100 µM (inactive) | > 100 µM (inactive) | > 100 µM (inactive) | > 100 µM (inactive) | > 100 µM (inactive) | > 100 µM (inactive) | > 100 µM (inactive) | > 100 µM (inactive) | > 100 µM (inactive) | > 100 µM (inactive) | > 100 µM (inactive) | > 100 µM (inactive) | > 100 µM (inactive)
COC(=O)NC(Cc1ccccc1)NC(=O)OC(C)(C)C (stereo not drawn) | > 100 µM (inactive) | > 100 µM (inactive) | > 100 µM (inactive) | > 100 µM (inactive) | > 100 µM (inactive) | > 100 µM (inactive) | > 100 µM (inactive) | > 100 µM (inactive) | > 100 µM (inactive) | > 100 µM (inactive) | > 100 µM (inactive) | > 100 µM (inactive) | > 100 µM (inactive) | > 100 µM (inactive) | > 100 µM (inactive) | > 100 µM (inactive) | > 100 µM (inactive) | > 100 µM (inactive) | > 100 µM (inactive) | > 100 µM (inactive)
CC(CN(C)C)C(O)(c1ccccc1)c1ccccc1 (stereo not drawn) | > 100 µM (inactive) | > 100 µM (inactive) | > 100 µM (inactive) | > 100 µM (inactive) | > 100 µM (inactive) | 27.2 µM (inactive) | > 100 µM (inactive) | > 100 µM (inactive) | > 100 µM (inactive) | > 100 µM (inactive) | > 100 µM (inactive) | > 100 µM (inactive) | > 100 µM (inactive) | > 100 µM (inactive) | > 100 µM (inactive) | > 100 µM (inactive) | > 100 µM (inactive) | > 100 µM (inactive) | > 100 µM (inactive) | > 100 µM (inactive)
N#CC(C#N)=C(N)/C(C#N)=C/c1ccc(O)c(O)c1 | > 91.8 µM (inactive) | > 100 µM (inactive) | > 100 µM (inactive) | 19.8 µM (inactive) | > 100 µM (inactive) | > 100 µM (inactive) | 22.6 µM (inactive) | > 92.9 µM (inactive) | 69.5 µM (inactive) | 52.8 µM (inactive) | 87.1 µM (inactive) | 47.9 µM (inactive) | > 100 µM (inactive) | 41.5 µM (inactive) | 37.5 µM (inactive) | 44.8 µM (inactive) | 40.5 µM (inactive) | 37.7 µM (inactive) | > 83.2 µM (inactive) | > 20.4 µM (inactive)
